Reference: patent US20230339939A1 (Bayer Aktiengesellschaft, priority 2020, published 2023)
pIC50: −log10 of the molar value. Where two headings read alike, the source gives them in different places.

Tests used:
Assay type in all cases: biochemical
CSNK1D = CSNK1D (Homo sapiens (Human), UniProt P48730); test: CSNK1D Assay (ADP-Glo, 1 μM ATP); details: median, read-out: CSNK1D IC50 [mol/l] (median)
Method: CSNK1D-inhibitory activity of compounds of the present invention in presence of 1 μM adenosine-tri-phosphate (ATP) was quantified employing the CSNK1 D assay as described in the following paragraphs. In essence, the enzyme activity is measured by quantification of the adenosine-di-phosphate (ADP), which is generated as a co-product of the enzyme reaction, via the “ADP-Glo™ Kinase Assay” kit from the company Promega. This detection system works as follows: In a first step the ATP not consumed in the kinase reaction is quantitatively converted to cAMP employing an adenylate cyclase (“ADP-Glo-reagent”), then the adenylate cyclase is stopped and the ADP generated in the kinase reaction converted to ATP which generates in a luciferase-based reaction a glow-luminescence signal (“Kinase Detection Reagent”).
Recombinant fusion protein of N-terminal Glutathion-S-Transferase (GST) and full-length human CSNK1D, expressed by baculovirus infected insect cells and purified via Glutathion affinity chromatography, was purchased from Life Technologies (product no. PV3665) and used as enzyme. As substrate for the kinase reaction the biotinylated peptide Btn-Ahx-[…] (C-terminus in amide form) was used which can be purchased e.g. from the company Biosyntan (Berlin-Buch, Germany).
For the assay 50 nl of a 100 fold concentrated solution of the test compound in DMSO was pipetted into a white 1536-well microtiter plate (Greiner Bio-One, Frickenhausen, Germany), 2 μL of a solution of CSNK1D in aqueous assay buffer [50 mM HEPES pH 7.5, 10% (v/v) glycerol, 10 mM MgCl2, 50 mM NaCl, 1 mM dithiothreitol, 0.01% (w/v) bovine serum albumin, 0.01% (v/v) Triton X-100] were added and the mixture was incubated for 15 min at 22° C. to allow pre-binding of the test compounds to the enzyme before the start of the kinase reaction. […] The concentration of CSNK1D was adjusted depending of the activity of the enzyme lot and was chosen appropriate to have the assay in the linear range, a typical concentration is about 0.5 ng/μL. The reaction was stopped by the addition of 2.5 μL of “ADP-Glo-reagent” (1:1.5 fold diluted with water) and the resulting mixture was incubated at 22° C. for 1 h to convert the ATP not consumed in the kinase reaction completely […]. Subsequently 2.5 μL of the “kinase detection reagent” (1.2 fold more concentrated than recommended by the producer) were added, the resulting mixture was incubated at 22° C. for 1 h and then the luminescence measured with a suitable measurement instrument (e.g. Viewlux™ from Perkin-Elmer). The amount of emitted light was taken as a measure for the amount of ADP generated and thereby for the activity of the CSNK1D.

CSNK1A1 [1] = target: T1, CSNK1A1 (Homo sapiens (Human), UniProt P48729); test: CSNK1A1 High ATP Assay (ADP-Glo, 1 mM ATP); details: median, read-out: CSNK1A1 high ATP assay IC50 [mol/l] (median)
T1 sequence (P48729 whole entry): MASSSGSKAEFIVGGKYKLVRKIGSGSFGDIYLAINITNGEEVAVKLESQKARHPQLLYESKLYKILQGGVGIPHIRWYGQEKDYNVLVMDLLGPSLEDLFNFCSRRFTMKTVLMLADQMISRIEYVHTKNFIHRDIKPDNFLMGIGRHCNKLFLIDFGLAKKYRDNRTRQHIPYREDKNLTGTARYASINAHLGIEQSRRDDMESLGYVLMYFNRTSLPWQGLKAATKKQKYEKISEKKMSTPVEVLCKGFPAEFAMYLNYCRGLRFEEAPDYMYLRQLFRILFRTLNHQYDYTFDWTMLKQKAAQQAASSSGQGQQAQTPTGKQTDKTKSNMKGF
Method: CSNK1A1-inhibitory activity of compounds of the present invention in presence of 1 mM adenosine-tri-phosphate (ATP) was quantified employing the CSNK1A1-high-ATP-assay as described in the following paragraphs. In essence, the enzyme activity is measured by quantification of the adenosine-di-phosphate (ADP), which is generated as a co-product of the enzyme reaction, via the “ADP-Glo™ Kinase Assay” kit from the company Promega. This detection system works as follows: In a first step the ATP not consumed in the kinase reaction is quantitatively converted to cAMP employing an adenylate cyclase (“ADP-Glo-reagent”), then the adenylate cyclase is stopped and the ADP generated in the kinase reaction converted to ATP which generates in a luciferase-based reaction a glow-luminescence signal (“Kinase Detection Reagent”).
(§1) Recombinant fusion protein of N-terminal Glutathion-S-Transferase (GST) and full-length human CSNK1A1, expressed by baculovirus infected insect cells and purified via Glutathion affinity chromatography, was purchased from Life Technologies (product no. PV4174) and used as enzyme. As substrate for the kinase reaction the biotinylated peptide biotin-Ahx-KRRRAL-pS-VASLPGL (C-terminus in amide form) was used which can be purchased e.g. from the company Biosyntan (Berlin-Buch, Germany).
For the assay 50 nl of a 100 fold concentrated solution of the test compound in DMSO was pipetted into a white low volume 384-well microtiter plate (Greiner Bio-One, Frickenhausen, Germany), 2 μL of a solution of CSNK1A1 in aqueous assay buffer [50 mM HEPES pH 7.5, 10% (v/v) glycerol, 10 mM MgCl2, 50 mM NaCl, 1 mM dithiothreitol, 0.01% (w/v) bovine serum albumin, 0.01% (v/v) Triton X-100] were added and the mixture was incubated for 15 min at 22° C. to allow pre-binding of the test compounds to the enzyme before the start of the kinase reaction. […] The concentration of CSNK1A1 was adjusted depending of the activity of the enzyme lot and was chosen appropriate to have the assay in the linear range, a typical concentration is about 0.4 ng/μL. The reaction was stopped by the addition of 2.5 μL of “ADP-Glo-reagent” (1:1.5 fold diluted with water) and the resulting mixture was incubated at 22° C. for 1 h to convert the ATP not consumed in the kinase reaction completely […]. Subsequently 2.5 μL of the “kinase detection reagent” (1.2 fold more concentrated than recommended by the producer) were added, the resulting mixture was incubated at 22° C. for 1 h and then the luminescence measured with a suitable measurement instrument (e.g. Viewlux™ from Perkin-Elmer). The amount of emitted light was taken as a measure for the amount of ADP generated and thereby for the activity of the CSNK1A1.

CSNK1A1 [2] = target: T1, CSNK1A1; test: CSNK1A1 Assay 2 (ADP-Glo, 1 μM ATP, substrate biotin-Ahx-KRRRAL-pS-VASLPGL); details: median, read-out: CSNK1A1 Assay 2 IC50 [mol/l] (median)
Method: CSNK1A1-inhibitory activity of compounds of the present invention in presence of 1 μM adenosine-tri-phosphate (ATP) was quantified employing the CSNK1A1 assay as described in the following paragraphs. In essence, the enzyme activity is measured by quantification of the adenosine-di-phosphate (ADP), which is generated as a co-product of the enzyme reaction, via the “ADP-Glo™ Kinase Assay” kit from the company Promega. This detection system works as follows: In a first step the ATP not consumed in the kinase reaction is quantitatively converted to cAMP employing an adenylate cyclase (“ADP-Glo-reagent”), then the adenylate cyclase is stopped and the ADP generated in the kinase reaction converted to ATP which generates in a luciferase-based reaction a glow-luminescence signal (“Kinase Detection Reagent”).
as §1
For the assay 50 nl of a 100 fold concentrated solution of the test compound in DMSO was pipetted into a white 1536-well microtiter plate (Greiner Bio-One, Frickenhausen, Germany), 2 μL of a solution of CSNK1A1 in aqueous assay buffer [50 mM HEPES pH 7.5, 10% (v/v) glycerol, 10 mM MgCl2, 50 mM NaCl, 1 mM dithiothreitol, 0.01% (w/v) bovine serum albumin, 0.01% (v/v) Triton X-100] were added and the mixture was incubated for 15 min at 22° C. to allow pre-binding of the test compounds to the enzyme before the start of the kinase reaction. […] The concentration of CSNK1A1 was adjusted depending of the activity of the enzyme lot and was chosen appropriate to have the assay in the linear range, a typical concentrations are about 0.0375 ng/μL. The reaction was stopped by the addition of 2.5 μL of “ADP-Glo-reagent” (1:1.5 fold diluted with water) and the resulting mixture was incubated at 22° C. for 1 h to convert the ATP not consumed in the kinase reaction completely […]. Subsequently 2.5 μL of the “kinase detection reagent” (1.2 fold more concentrated than recommended by the producer) were added, the resulting mixture was incubated at 22° C. for 1 h and then the luminescence measured with a suitable measurement instrument (e.g. Viewlux™ from Perkin-Elmer). The amount of emitted light was taken as a measure for the amount of ADP generated and thereby for the activity of the CSNK1A1.

[3] = target: wild-type Epidermal Growth Factor Receptor (EGFR) (Homo sapiens (Human), UniProt P00533); test: WT-EGFR Kinase Assay (TR-FRET, 2 mM ATP)
Chain of wild-type Epidermal Growth Factor Receptor (EGFR) (P00533 669-1210): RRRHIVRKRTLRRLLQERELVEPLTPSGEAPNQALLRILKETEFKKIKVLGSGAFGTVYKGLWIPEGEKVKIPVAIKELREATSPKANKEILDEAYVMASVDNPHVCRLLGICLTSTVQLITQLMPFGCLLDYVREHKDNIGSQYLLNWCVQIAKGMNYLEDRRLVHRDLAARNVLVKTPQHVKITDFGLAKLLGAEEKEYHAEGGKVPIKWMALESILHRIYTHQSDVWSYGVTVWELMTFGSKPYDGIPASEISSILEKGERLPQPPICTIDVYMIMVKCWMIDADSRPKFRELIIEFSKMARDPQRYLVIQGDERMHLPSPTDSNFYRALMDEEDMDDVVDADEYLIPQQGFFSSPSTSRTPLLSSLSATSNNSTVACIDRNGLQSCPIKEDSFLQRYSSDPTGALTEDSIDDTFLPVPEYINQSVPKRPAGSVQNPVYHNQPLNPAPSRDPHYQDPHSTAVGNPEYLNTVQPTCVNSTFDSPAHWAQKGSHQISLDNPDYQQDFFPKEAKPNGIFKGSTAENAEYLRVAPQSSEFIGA
From the text: Inhibitory activity of compounds of the present invention against wild-type Epidermal Growth Factor Receptor (EGFR) was quantified employing the TR-FRET based EGFR assay as described in the following paragraphs.
Recombinant fusion protein of N-terminal Glutathion-S-Transferase (GST) and a fragment of human EGFR (amino acids R669 to A1210), expressed in Sf9 insect cells and purified via affinity chromatography using Glutathion Sepharose as described above, was used as kinase. As substrate for the kinase reaction the biotinylated peptide biotin-Ahx-[…] (C-terminus in amide form) was used which can be purchased e.g. form the company Biosynthan GmbH (Berlin-Buch, Germany).
For the assay 50 nl of a 100 fold concentrated solution of the test compound in DMSO was pipetted into either a black low volume 384 well microtiter plate or a black 1536 well microtiter plate (both Greiner Bio-One, Frickenhausen, Germany), 2 μL of a solution of EGFR in aqueous assay buffer [50 mM Hepes pH 7.0, 10 mM MgCl2, 1 mM dithiothreitol, 0.5 mM EGTA, 0.3 mM activated sodium ortho-vanadate, 0.005% (w/v) bovine serum albumin, 0.005% (v/v) Tween-20] were added and the mixture was incubated for 15 min at 22° C. to allow pre-binding of the test compounds to the enzyme before the start of the kinase reaction. […] The concentration of EGFR was adjusted depending of the activity of the enzyme lot and was chosen appropriate to have the assay in the linear range, typical concentration was 7.6 pg/μL. The reaction was stopped by the addition of 3 μL of a solution of HTRF detection reagents (83.3 nM streptavidine-XL665 [Cisbio Bioassays, Codolet, France] and 1.67 nM PT66-Tb-Cryptate, a terbium-cryptate labelled anti-phospho-tyrosine antibody from Cisbio Bioassays [instead of the PT66-Tb-cryptate PT66-Eu-Chelate from Perkin Elmer can also be used]) in an aqueous EDTA-solution (133.3 mM EDTA, 0.2% (w/v) bovine serum albumin in 50 mM HEPES pH 7.5).
The resulting mixture was incubated 1 h at 22° C. to allow the binding of the biotinylated phosphorylated peptide to the streptavidine-XL665 and the PT66-Tb-Cryptate. Subsequently the amount of phosphorylated substrate was evaluated by measurement of the resonance energy transfer from the PT66-Tb-Cryptate to the streptavidine-XL665. Therefore, the fluorescence emissions at 620 nm and 665 nm after excitation at 337 nm were measured in a HTRF reader, e.g. a Pherastar (BMG Labtechnologies, Offenburg, Germany) or a Viewlux (Perkin-Elmer). The ratio of the emissions at 665 nm and at 622 nm was taken as the measure for the amount of phosphorylated substrate.

[4] = read-out: EGFR Wildtype 2 mM ATP IC50 [mol/l] (median)

Chain of CSNK1D (P48730 whole entry): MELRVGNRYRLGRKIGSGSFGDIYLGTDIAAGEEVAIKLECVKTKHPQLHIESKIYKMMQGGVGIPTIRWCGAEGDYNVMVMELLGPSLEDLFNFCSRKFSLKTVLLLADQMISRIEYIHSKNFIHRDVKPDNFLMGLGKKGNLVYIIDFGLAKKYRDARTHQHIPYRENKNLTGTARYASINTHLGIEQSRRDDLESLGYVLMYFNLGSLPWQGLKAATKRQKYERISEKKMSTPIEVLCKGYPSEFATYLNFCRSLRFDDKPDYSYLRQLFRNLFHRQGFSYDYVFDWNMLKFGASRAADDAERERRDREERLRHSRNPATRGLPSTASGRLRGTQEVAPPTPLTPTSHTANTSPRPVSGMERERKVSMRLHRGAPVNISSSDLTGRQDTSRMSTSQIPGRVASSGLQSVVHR

Row | SMILES | pIC50 (CSNK1D) | pIC50 (CSNK1A1 [1]) | pIC50 (CSNK1A1 [2]) | pIC50 [3, 4] | pIC50 ([3]; median)
1 | CC(C(=O)Nc1cc(-c2[nH]c3ccc(F)nc3c2-c2ccc(F)cn2)ccn1)c1ccc(F)cc1 (single isomer, unassigned; (-)) [Example 49, (−)-N-{4-[5-fluoro-3-(5-fluoropyridin-2-yl)-1H-pyrrolo[3,2-b]pyridin-2-yl]pyridin-2-yl}-2-(4-fluorophenyl)propanamide] | 7.48 | 5.59 | 7.46 | – | –
2 | O=C(Cc1ccc(F)cc1)Nc1cc(-c2[nH]c3ccc(F)nc3c2-c2ccc(F)cn2)ccn1 [Example 50, N-{4-[5-fluoro-3-(5-fluoropyridin-2-yl)-1H-pyrrolo[3,2-b]pyridin-2-yl]pyridin-2-yl}-2-(4-fluorophenyl)acetamide] | 8.50 | 7.38 | 8.85 | – | –
3 | O=C(Cc1ccc(F)cc1)Nc1cc(-c2[nH]c3ccnnc3c2-c2ccccc2)ccn1 [Example 20, 2-(4-fluorophenyl)-N-[4-(7-phenyl-5H-pyrrolo[3,2-c]pyridazin-6-yl)pyridin-2-yl]acetamide] | – | 7.11 | 8.89 | < 4.70 | –
4 | CC(C(=O)Nc1cc(-c2[nH]c3cccnc3c2-c2ccccc2)ccn1)c1ccc(F)cc1 (single isomer, unassigned; (+)) [Example 13, (+)-2-(4-fluorophenyl)-N-[4-(3-phenyl-1H-pyrrolo[3,2-b]pyridin-2-yl)pyridin-2-yl]propanamide] | – | 7.04 | 8.78 | < 4.70 | –
5 | O=C(Cc1ccc(F)cc1)Nc1cc(-c2[nH]c3nccnc3c2-c2ccccn2)ccn1 [Example 19, 2-(4-fluorophenyl)-N-{4-[7-(pyridin-2-yl)-5H-pyrrolo[2,3-b]pyrazin-6-yl]pyridin-2-yl}acetamide] | – | 7.48 | 8.99 | < 4.70 | –
6 | CC(C(=O)Nc1cc(-c2[nH]c3cccnc3c2-c2ccccc2)ccn1)c1ccc(F)cc1 (single isomer, unassigned; (-)) [Example 12, (−)-2-(4-fluorophenyl)-N-[4-(3-phenyl-1H-pyrrolo[3,2-b]pyridin-2-yl)pyridin-2-yl]propanamide] | – | 5.60 | 7.43 | – | < 4.70
7 | O=C(Cc1ccc(F)cc1)Nc1cc(-c2[nH]c3nccnc3c2-c2ccccc2)ccn1 [Example 18, 2-(4-fluorophenyl)-N-[4-(7-phenyl-5H-pyrrolo[2,3-b]pyrazin-6-yl)pyridin-2-yl]acetamide] | – | 6.59 | 8.48 | < 4.70 | –
8 | CC(C(=O)Nc1cc(-c2[nH]c3ccc(F)nc3c2-c2ccc(F)cn2)ccn1)c1ccc(F)cc1 (single isomer, unassigned; (+)) [Example 48, (+)-N-{4-[5-fluoro-3-(5-fluoropyridin-2-yl)-1H-pyrrolo[3,2-b]pyridin-2-yl]pyridin-2-yl}-2-(4-fluorophenyl)propanamide] | 8.40 | 7.44 | 8.77 | – | –
